Experimental data from patent US20230346943A1, “SPACER-MEDIATED CONTROL OF UNCAGING PHOTOCAGED MOLECULES” (The Regents of the University of California, priority 2020, published 2023).

What was measured:
[1] = Photolysis (photon uncaging) kinetics of photocaged thymidine monitored by UPLC; format: physicochemical; conditions: for Rate constant (first order) for the decay of photocaged thymidine (kdecay) / Quantum efficiency (Φ) of release for thymidine (dT) / Quantum efficiency (Φ) of release for thymidine-retaining byproduct(s): 35% (v/v) aq methanol; for Efficiency of thymidine release (max): maximal free thymidine released on photolysis; for Formation of thymidine-bearing byproduct dT^N-DEACM on photolysis: regardless of the light wavelength (365, 420, 455 nm)
Method: Photolysis of 1 was performed in an aqueous medium (0.21 mM in 35% (v/v) aq methanol), and its uncaging kinetics was determined by monitoring exposed solutions using UV-vis spectroscopy and UPLC (FIGS. 3A-3D). UV-vis spectra acquired after photolysis at 420 nm (exposure time = 0-20 min) show absorption changes in an exposure time-dependent manner (FIGS. 5A-5F), but these are not applicable for the detection and quantitation of thymidine released. In contrast, UPLC traces acquired after photolysis (FIG. 3A) show the disappearance of 1 with the concomitant growth of free thymidine (dT) (tr = 3.1 min) along with coumarin photocage detached 5 (tr = 6.5 min). The area under curve (AUC) analysis of these peaks provided a decay curve for 1 (FIG. 3B). Its regression analysis allowed determining a rate constant for first-order decay (kdecay = 1.5 ×10^-3 sec^-1), and quantum efficiency for thymidine release (ΦdT = 0.015) (Table 1).
We similarly evaluated the uncaging kinetics of 2 dT^O-Bn-DEACM (0.17 mM in 35% (v/v) aq methanol) by irradiation at 420 nm (FIGS. 3C-3D). Its photolysis led to smaller changes in UV-vis spectra with lack of a clear trend compared to 1 dT^O-DEACM (FIGS. 5A-5F). Overlaid UPLC traces show time-dependent, rapid uncaging of 2 with ~65% release of thymidine achieved after an initial exposure for 5 min. […] Regression analysis of its decay curve provided a decay constant (kdecay = 1.1×10^-3 sec^-1), which is slightly lower than that of 1 (Table 1). However, its lack of the byproduct formation makes a positive contribution to enhancing its quantum efficiency for thymidine release (ΦdT = 0.025) compared to 1 (ΦdT = 0.015). This clean uncaging kinetics offers evidence for greater advantages in thymidine uncaging by the extended spacer than the direct ether linkage.
UPLC was performed for homogeneity analysis and compound characterization in a Waters Acquity System combined with a photodiode array (PDA) detector. The UPLC analysis involved running a sample in a C4 BEH column (100 × 2.1 mm, 300 Å) at a flow rate of 0.2 mL min^-1. The elution occurred in a linear gradient composed of two mobile solvents, water and acetonitrile, each containing TFA (0.1% v/v) (eluent A and B respectively). Its method consisted of an initial phase 1% B (0-1.4 min), a linear increased to 80% B (1.4-13.4 min), a decrease to 50% B (13.4-13.8 min), a decrease to 1% B (13.8-14.4 min) and finally an isocratic elution at 1% B (14.4-18 min). This method was also applied for the kinetic analysis of product release.
Light Sources. Photolytic studies for thymidine release were performed with three light sources. These include: i) UV lamp (XX-15A, Spectroline®) for irradiation at long wavelength UV light (UVA) with a maximal intensity at 365 nm;^4 ii) LZC-420 lamp (Luzchem Research) for visible light at 420 nm; iii) LZC-LBL light emitting diode (LED) lamp (Luzchem Research) for visible (blue) light 445-465 nm. Photon flux density (qn,p = qp/NA, mol × s^-1) of each lamp was determined by ferrioxalate actinometry according to a standard protocol.^52, ^53 […]
Uncaging Kinetics and Analysis. Typically, a solution of photocaged thymidine 1 or 2 (dT^caged: 0.05-0.1 mg/mL) in aq methanol (30-35% v/v) was prepared and exposed to the light at a distance of ~5 cm. After each exposure period, the solution was aliquoted out as a function of irradiation time (0-30 min), and each aliquot was analyzed by UPLC and UV-vis absorption spectrometry to determine the kinetics of thymidine release and byproduct formation. Certain aliquot was further analyzed by HPLC-MS mass spectrometry (ESI) to validate the identity of thymidine and released molecular species in the photolysed solution.
Quantum efficiency (Φ) for the release of thymidine (dT) is defined in eq 1, and its value was calculated according to a standard method as noted in eq 2:^53 […]

[2] = UV-vis absorption property; conditions: for λmax: UV-vis spectrum; for λmax / Molar absorptivity ε at λmax: 35% aq methanol
Method: We observed the absorption properties of the coumarin (DEACM), a common photocage present in 1 and 2, as shown in their UV-vis spectra (FIG. 2A).
Spectra for UV-vis Absorption Were Recorded With a Perkin Elmer Lamda 20 Spectrophotometer.

[3] = photon uncaging ability of the N-isomer; cited from earlier work

Row | Compound | Rate constant (first order) for the decay of photocaged thymidine (kdecay) ([1]; irradiation 365 nm (UVA)) | Quantum efficiency (Φ) of release for thymidine (dT) ([1]; irradiation 365 nm) | Quantum efficiency (Φ) of release for thymidine-retaining byproduct(s) ([1]; irradiation 365 nm) | Rate constant (first order) for the decay of photocaged thymidine (kdecay) ([1]; irradiation 420 nm (visible)) | Quantum efficiency (Φ) of release for thymidine (dT) ([1]; irradiation 420 nm) | Quantum efficiency (Φ) of release for thymidine-retaining byproduct(s) ([1]; irradiation 420 nm) | Rate constant (first order) for the decay of photocaged thymidine (kdecay) ([1]; irradiation 455 nm (visible)) | Quantum efficiency (Φ) of release for thymidine (dT) ([1]; irradiation 455 nm) | Quantum efficiency (Φ) of release for thymidine-retaining byproduct(s) ([1]; irradiation 455 nm) | Efficiency of thymidine release (max) [1] | Formation of thymidine-bearing byproduct dT^N-DEACM on photolysis [1] | λmax [2] | Molar absorptivity ε at 455 nm [2] | Molar absorptivity ε at λmax [2] | Decay on irradiation relative to 1 dT^O-DEACM [3] | Undesired species (tr = 7.8 min) in UPLC traces after photolysis ([1]; irradiation 420 nm) | Release of thymidine after initial exposure ([1]; irradiation 420 nm, exposure 5 min) | Faster decay than 1 at 455 nm ([1]; irradiation 455 nm, relative to 1) | Efficiency of thymidine release (max) ([1]; listed as new photocaged thymidine) | Photolysis rate at 455 nm lower than at 420 nm ([1]; ratio of decay rates, 455 nm vs 420 nm)
1 | CCN(CC)c1ccc2c(COc3nc(=O)n([C@H]4C[C@H](O)[C@@H](CO)O4)cc3C)cc(=O)oc2c1 [Compound 1, dT^O-DEACM, reference compound] | 0.00089 s⁻¹ | 0.006 | 0.005 | 0.0015 s⁻¹ | 0.015 | 0.017 | 0.00012 s⁻¹ | 0.017 | 0.023 | 58% | induces a thymidine-bearing byproduct | 393 nm | 1,115 M^-1cm^-1 | 10,209 M^-1cm^-1 | – | – | – | – | – | –
2 | CCN(CC)c1ccc2c(Cn3c(=O)c(C)cn(C4CC(O)C(CO)O4)c3=O)cc(=O)oc2c1 (stereo not shown) [dT^N-DEACM] | – | – | – | – | – | – | – | – | – | – | – | – | – | – | approximately two orders of magnitude more slowly | – | – | – | – | –
3 | dT^O-Bn-DEACM [Compound 2] | 0.0011 s⁻¹ | 0.014 | – | 0.0011 s⁻¹ | 0.025 | – | 0.00058 s⁻¹ | 0.081 | – | 94% | lack of the byproduct formed | 390 nm | 1,653 M^-1cm^-1 | 11,603 M^-1cm^-1 | – | have not observed the undesired species | ~ 65% | ~ 5 Fold | ~ 94% | approximately 2 Fold
